Data on ten compounds can be found in US9849185B2, “Benzoic acid, benzoic acid derivatives and heteroaryl carboxylic acid conjugates of hydromorphone, prodrugs, methods of making and use thereof” (priority 2011, dated 2017).

Data set [1] in a line: Oral pharmacokinetic study in rats (released hydromorphone in plasma). Particulars: rat; for AUC of hydromorphone released from the conjugate / Cmax of hydromorphone released from the conjugate / Tmax of hydromorphone released from the conjugate: oral solution, dose equimolar to 2.0 mg/kg hydromorphone, plasma.
Data set [2] is described as follows: Intranasal pharmacokinetic study in rats. Particulars: rat, equimolar to 2.0 mg/kg hydromorphone. How it is done: The intranasal studies were performed at doses equimolar to 2.0 mg/kg of hydromorphone.
The nature of data set [3]: Tamper resistance study: extraction methods, hydromorphone release by HPLC. To be noted: for amount of hydromorphone released from 3,6-di-aspirin-HM: %-AUC by HPLC. The source says: Certain prodrug conjugates of the present technology were exposed to various commonly applied “extraction methods” to test for hydrolysis and/or decomposition of the prodrug.
Data set [4] is described as follows: Intravenous pharmacokinetic study in rats. To be noted: rat, 0.20 mg/kg.
The test system of a further data set is GI transit. The experiment in a line: Validated rat gastrointestinal (GI) motility study. To be noted: oral, equimolar dose, result in words.
Where [5] appears, read: oral, equimolar to 2.0 mg/kg hydromorphone, result in words.

Consider `COc1ccc2cc(C(C)C(=O)OC3=CCC4C5Cc6ccc(O)c7c6C4(CCN5C)C3O7)ccc2c1` (stereo not drawn) [6-Naproxen-HM, 6-naproxen-hydromorphone], for which, in data set [1], the “AUC of hydromorphone released from the conjugate” value (from here on “AUC of hydromorphone released”) came out at 31.6 ng·h/mL, the “Cmax of hydromorphone released from the conjugate” value (“Cmax of hydromorphone released” below) is 19.1 ng/mL and the “Tmax of hydromorphone released from the conjugate” value (“Tmax of hydromorphone released” below) came out at 15 min. Also, the “overall exposure after oral administration compared to the parent drug” value in data set [1] (setting [5]) is on record as “reduced significantly”.

Take `CC(=O)Oc1ccccc1C(=O)Oc1ccc2c3c1OC1C(=O)CCC4C(C2)N(C)CCC314` (stereo not drawn) [Conjugate 3-Aspirin-HM, 3-aspirin-hydromorphone]: in data set [1], the “AUC of hydromorphone released” value was 55.9 ng·h/mL, the “Cmax of hydromorphone released” value is 44.3 ng/mL and the “Tmax of hydromorphone released” value stood at 15 min. Moreover, in data set [1] (setting [5]), the “hydromorphone plasma concentrations compared to unconjugated hydromorphone” value is listed as “comparable”.

Consider `CN1CC[C@]23c4c5ccc(OC(=O)c6ccccc6Nc6ccccc6)c4OC2C(=O)CC[C@H]3[C@H]1C5` (stereo partly drawn) [3-Fenamate-HM, 3-fenamate-hydromorphone], for which, in data set [1], the “AUC of hydromorphone released” value is 44.6 ng·h/mL, the “Cmax of hydromorphone released” value is 30.6 ng/mL and the “Tmax of hydromorphone released” value came to 15 min. Also, the “hydromorphone plasma concentrations compared to unconjugated hydromorphone” value in data set [1] (setting [5]) was “elevated for the first hour after oral administration and then decreased quickly”.

For `CN1CCC23c4c5ccc(O)c4OC2C(OC(=O)c2ccccc2O)=CCC3C1C5` (stereo not drawn) [6-o-Salicylate-HM, 6-o-salicylate-hydromorphone], in data set [1], the “AUC of hydromorphone released” value was 33.3 ng·h/mL, the “Cmax of hydromorphone released” value was determined as 14.1 ng/mL and the “Tmax of hydromorphone released” value was 15 min. The “Cmax value of released hydromorphone compared to unconjugated hydromorphone” value in data set [1] (setting [5]) was “lower”.

Turning to `CN1CCC23c4c5ccc(OC(=O)c6ccccc6)c4OC2C(OC(=O)c2ccccc2)=CCC3C1C5` (stereo not drawn) [3,6-di-Benzoate-HM, 3,6-di-benzoate-hydromorphone], in data set [1], the “AUC of hydromorphone released” value was 30.1 ng·h/mL, the “Cmax of hydromorphone released” value is 11.3 ng/mL and the “Tmax of hydromorphone released” value turned out to be 15 min. The “hydromorphone plasma concentrations compared to unconjugated hydromorphone” value in data set [1] (setting [5]) is given as “lower at all time points”.

`CN1CCC23c4c5ccc(OC(=O)c6ccc(O)cc6)c4OC2C(=O)CCC3C1C5` (stereo not drawn) [3-p-Salicylic-HM, 3-p-salicylic-hydromorphone]: in data set [1], the “AUC of hydromorphone released” value came out at 31.4 ng·h/mL, the “Cmax of hydromorphone released” value was determined as 17.2 ng/mL and the “Tmax of hydromorphone released” value is 15 min. Also, in data set [1] (setting [5]), the “hydromorphone plasma concentrations compared to unconjugated hydromorphone” value is “lower at all time points”.

As for `CN1CCC23c4c5ccc(OC(=O)c6ccncc6)c4OC2C(=O)CCC3C1C5` (stereo not drawn) [3-Isoniacin-HM, 3-isoniacin-hydromorphone], in data set [1], the “AUC of hydromorphone released” value worked out at 25.1 ng·h/mL, the “Cmax of hydromorphone released” value came to 18.5 ng/mL and the “Tmax of hydromorphone released” value was found to be 15 min. The “Cmax value of released hydromorphone compared to unconjugated hydromorphone” value in data set [1] (setting [5]) is “lower”.

As for `CN1CCC23c4c5ccc(OC(=O)C=Cc6ccccc6)c4OC2C(=O)CCC3C1C5` (stereo not drawn) [3-Cinnamate-HM, 3-cinnamate-hydromorphone], in data set [1], the “AUC of hydromorphone released” value was determined as 25.3 ng·h/mL, the “Cmax of hydromorphone released” value was determined as 28.3 ng/mL and the “Tmax of hydromorphone released” value was 15 min. In data set [1] (setting [5]), the “hydromorphone plasma concentrations compared to unconjugated hydromorphone” value is recorded as “lower at all time points”.

For `CC(=O)Oc1ccccc1C(=O)OC1=CC[C@H]2[C@H]3Cc4ccc(OC(=O)c5ccccc5OC(C)=O)c5c4[C@@]2(CCN3C)[C@H]1O5` [3,6-di-Aspirin-HM, 3,6-di-aspirin-hydromorphone], the “AUC as % of unconjugated hydromorphone” value in data set [2] was found to be 17%; in data set [4], 6%. Besides, the “Cmax as % of unconjugated hydromorphone” value was determined as 20% in data set [2] and 3% in data set [4]. For the same compound, the “plasma concentrations of hydromorphone after intranasal administration compared to the parent drug” value in data set [2] (result in words) is “significantly reduced”. The “amount of hydromorphone released from 3,6-di-aspirin-HM” value (“amount of hydromorphone released” below) is 0% in data set [3] (1N HCl, ambient temperature, 30 min.); 0% in data set [3] (1N HCl, ambient temperature, 60 min.); 1% in data set [3] (1N NaOH, ambient temperature, 30 min.); 1% in data set [3] (1N NaOH, ambient temperature, 60 min.); 1% in data set [3] (4N NaOH, ambient temperature, 30 min.); 6% in data set [3] (4N NaOH, ambient temperature, 60 min.). The “amount of hydromorphone released” value in data set [3] (5% Acetic acid, ambient temperature, 30 min.) is given as 0%; in data set [3] (5% Acetic acid, ambient temperature, 60 min.) it was 0%; in data set [3] (Glacial acetic acid, ambient temperature, 30 min.), 0%; in data set [3] (Glacial acetic acid, ambient temperature, 60 min.), 0%; in data set [3] (Sat. NaHCO3, ambient temperature, 30 min.) it was 0%; in data set [3] (Sat. NaHCO3, ambient temperature, 60 min.), 0%. The “amount of hydromorphone released” value in data set [3] (Water, ambient temperature, 30 min.) came to 0%; in data set [3] (Water, ambient temperature, 60 min.), 0%. For the same compound, the “chemical stability under commonly applied "extraction methods"” value in data set [3] (result in words) is on record as “chemically stable”. In addition, the “outcome of solvent extraction from formulation” value in data set [3] (result in words) is “only yielded inactive prodrug”. For the same compound, the “plasma concentrations of hydromorphone after intravenous administration compared to unconjugated hydromorphone” value in data set [4] (result in words) is “significantly lower”. The “reduction of GI transit compared to hydromorphone hydrochloride” value with GI transit was “reduces GI transit to a lesser extent than hydromorphone hydrochloride”. The “AUC of hydromorphone released” value in data set [1] amounted to 82.4 ng·h/mL. Also, the “Cmax of hydromorphone released” value in data set [1] came out at 36.5 ng/mL. Further, the “Tmax of hydromorphone released” value in data set [1] stood at 15 min. Also, the “hydromorphone plasma concentrations compared to unconjugated hydromorphone” value in data set [1] (setting [5]) is reported as “comparable”.

Consider `CN1CCC23c4c5ccc(OC(=O)c6ccccc6)c4OC2C(=O)CCC3C1C5` (stereo not drawn) [3-Benzoate-HM, 3-benzoate-hydromorphone], for which, in data set [1], the “AUC of hydromorphone released” value is 41.2 ng·h/mL, the “Cmax of hydromorphone released” value stood at 19.8 ng/mL and the “Tmax of hydromorphone released” value was determined as 30 min. Besides, the “hydromorphone plasma concentrations compared to unconjugated hydromorphone” value in data set [1] (setting [5]) was “lower at all time points”.
